Measured values from PubChem BioAssay AID1963854 (Molecular Pharmacology Branch, DTP, NCI, 2024).

Test system: 186277-243-T-J2-PDC complex spheroid viability
Test: Anticancer human tumor 186277-243-T-J2-PDC patient-derived colon adenocarcinoma cell line growth inhibition [POLQ]
Conditions: for IC50: curve of first compound; for viability, T/C: stronger effect = lower value
How it was run: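 Three-cell-type spheroids modelling solid tumor plus stroma served as the readout system; POL inhibitors were tested individually and in combination, concentration ranges set by clinical Cmax where known.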

[1] = second compound 0.0316 µM, first compound 0.0316 µM
[2] = second compound 0.0316 µM, first compound 0.1 µM
[3] = second compound 0.0316 µM, first compound 0.316 µM
[4] = second compound 0.0316 µM, first compound 1 µM
[5] = second compound 0.0316 µM, first compound 3.16 µM
[6] = second compound 0.0316 µM, first compound 10 µM
[7] = second compound 0.1 µM, first compound 0.0316 µM
[8] = second compound 0.1 µM, first compound 0.1 µM
[9] = second compound 0.1 µM, first compound 0.316 µM
[10] = second compound 0.1 µM, first compound 1 µM
[11] = second compound 0.1 µM, first compound 3.16 µM
[12] = second compound 0.1 µM, first compound 10 µM
[13] = second compound 0.316 µM, first compound 0.0316 µM
[14] = second compound 0.316 µM, first compound 0.1 µM
[15] = second compound 0.316 µM, first compound 0.316 µM
[16] = second compound 0.316 µM, first compound 1 µM
[17] = second compound 0.316 µM, first compound 3.16 µM
[18] = second compound 0.316 µM, first compound 10 µM
[19] = second compound 1 µM, first compound 0.0316 µM
[20] = second compound 1 µM, first compound 0.1 µM
[21] = second compound 1 µM, first compound 0.316 µM
[22] = second compound 1 µM, first compound 1 µM
[23] = second compound 1 µM, first compound 3.16 µM
[24] = second compound 1 µM, first compound 10 µM
[25] = second compound 3.16 µM, first compound 0.0316 µM
[26] = second compound 3.16 µM, first compound 0.1 µM
[27] = second compound 3.16 µM, first compound 0.316 µM
[28] = second compound 3.16 µM, first compound 1 µM
[29] = second compound 3.16 µM, first compound 3.16 µM
[30] = second compound 3.16 µM, first compound 10 µM
[31] = second compound 10 µM, first compound 0.0316 µM
[32] = second compound 10 µM, first compound 0.1 µM
[33] = second compound 10 µM, first compound 0.316 µM
[34] = second compound 10 µM, first compound 1 µM
[35] = second compound 10 µM, first compound 3.16 µM
[36] = second compound 10 µM, first compound 10 µM
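Also: spheroids exposed to compounds for seven days.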
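For viability, T/C in this document: 100% = DMSO vehicle control viability.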

CCCS(=O)(=O)Nc1ccc(F)c(C(=O)c2c[nH]c3ncc(-c4ccc(Cl)cc4)cc23)c1F + Cc1cccc(N(C)C(=O)C2C(O)CCN2c2nc(C)cc(C(F)(F)F)c2C#N)c1
IC50 (second compound 0.0316 µM): > 10 µM | IC50 (second compound 0.1 µM): > 10 µM | IC50 (second compound 0.316 µM): > 10 µM | IC50 (second compound 1 µM): > 10 µM | IC50 (second compound 3.16 µM): > 10 µM | IC50 (second compound 10 µM): > 10 µM | viability, T/C [1]: 83% | viability, T/C [2]: 101% | viability, T/C [3]: 80.6% | viability, T/C [4]: 95.6% | viability, T/C [5]: 82.8% | viability, T/C [6]: 58% | viability, T/C [7]: 87.7% | viability, T/C [8]: 91.2% | viability, T/C [9]: 79.3% | viability, T/C [10]: 92.4% | viability, T/C [11]: 76.8% | viability, T/C [12]: 56.8% | viability, T/C [13]: 85.9% | viability, T/C [14]: 108% | viability, T/C [15]: 87% | viability, T/C [16]: 88.2% | viability, T/C [17]: 77.8% | viability, T/C [18]: 52.8% | viability, T/C [19]: 106% | viability, T/C [20]: 89.3% | viability, T/C [21]: 99.9% | viability, T/C [22]: 79.7% | viability, T/C [23]: 89.7% | viability, T/C [24]: 51% | viability, T/C [25]: 115% | viability, T/C [26]: 88% | viability, T/C [27]: 83.5% | viability, T/C [28]: 83.4% | viability, T/C [29]: 77.3% | viability, T/C [30]: 56.9% | viability, T/C [31]: 93.4% | viability, T/C [32]: 86.9% | viability, T/C [33]: 93.2% | viability, T/C [34]: 83.9% | viability, T/C [35]: 88.1% | viability, T/C [36]: 56.1%

CCc1cc2c(N3CCc4c(cc(Cn5ccnc5)cc4-c4cn(C)nc4C(F)(F)F)C3=O)ccnc2c(OC)n1 + Nc1ccc(C#CCN(C(=O)Cc2ncc(C(F)(F)F)cc2C(F)(F)F)c2ccc(F)cc2)nn1
IC50 (second compound 0.0316 µM): > 10 µM | IC50 (second compound 0.1 µM): > 10 µM | IC50 (second compound 0.316 µM): > 10 µM | IC50 (second compound 1 µM): > 10 µM | IC50 (second compound 3.16 µM): > 10 µM | IC50 (second compound 10 µM): > 10 µM | viability, T/C [1]: 94.6% | viability, T/C [2]: 95.7% | viability, T/C [3]: 91.6% | viability, T/C [4]: 85.6% | viability, T/C [5]: 96.3% | viability, T/C [6]: 111% | viability, T/C [7]: 90.2% | viability, T/C [8]: 92.2% | viability, T/C [9]: 100% | viability, T/C [10]: 97.8% | viability, T/C [11]: 119% | viability, T/C [12]: 95.5% | viability, T/C [13]: 88.8% | viability, T/C [14]: 111% | viability, T/C [15]: 90.9% | viability, T/C [16]: 108% | viability, T/C [17]: 104% | viability, T/C [18]: 114% | viability, T/C [19]: 103% | viability, T/C [20]: 102% | viability, T/C [21]: 93.1% | viability, T/C [22]: 94.6% | viability, T/C [23]: 110% | viability, T/C [24]: 105% | viability, T/C [25]: 109% | viability, T/C [26]: 98.7% | viability, T/C [27]: 112% | viability, T/C [28]: 100% | viability, T/C [29]: 106% | viability, T/C [30]: 94.2% | viability, T/C [31]: 117% | viability, T/C [32]: 99% | viability, T/C [33]: 100% | viability, T/C [34]: 117% | viability, T/C [35]: 121% | viability, T/C [36]: 90.9%
